From PMC12621175, “Scaffold Fusion and SAR Transfer with a Chemical Language Model Generates Novel Liver X Receptor Modulators” (Journal of Medicinal Chemistry, 2025)
“Also recorded” adds a separate entry of the source.

How the values were obtained:
LXRα = biological target: T1, LXRα (Homo sapiens, UniProt Q13133); test: Gal4-LXRα hybrid reporter gene assay; assay type: cell-based
T1 construct: coding for the hinge region, and LBD of the canonical isoform of the respective nuclear receptor; expressed in transfected cells; host or cells: HEK293T
T1 sequence (Q13133 209-447 limits assumed): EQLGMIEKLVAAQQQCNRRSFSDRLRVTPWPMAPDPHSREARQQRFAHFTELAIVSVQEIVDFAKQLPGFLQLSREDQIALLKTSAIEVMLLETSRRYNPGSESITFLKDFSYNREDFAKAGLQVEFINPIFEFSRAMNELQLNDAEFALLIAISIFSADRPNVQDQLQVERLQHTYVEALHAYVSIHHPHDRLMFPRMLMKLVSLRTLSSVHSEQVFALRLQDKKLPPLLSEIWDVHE
Protocol: (§1) The LXR-responsive reporter ABCA1-pGL3 was used for the full-length reporter gene assay.
(§2) The day before transfection, HEK293T cells were seeded in 96-well plates (4 × 10^4 cells/well). Before transfection, the medium was changed to Opti-MEM without any supplements. Transient transfection was carried out using Lipofectamine LTX reagent (Invitrogen) according to the manufacturer’s protocol with (a) pFR-Luc (Stratagene), pRL-SV40 (Promega), and the corresponding Gal4-fusion nuclear receptor plasmid or (b) the LXR-responsive reporter ABCA1-pGL3 and pRL-SV40 (Promega). […] Each concentration was tested in duplicate, and each experiment was repeated in at least three biologically independent repeats. […] Luminescence was measured with a Spark 10 M luminometer (Tecan Deutschland GmbH). Normalization of transfection efficiency and cell growth was done by division of firefly luciferase data by renilla luciferase data multiplied by 1000, resulting in relative light units (RLU). Fold activation was obtained by dividing the mean RLU of the tested compound at a respective concentration by the mean RLU of the untreated 0.1% DMSO control. […] Separate control experiments to exclude nonspecific reporter gene activation or VP16-mediated effects were performed following the same procedure in the absence of a nuclear receptor expression plasmid (pFR-Luc, pRL-SV40, and pECE-SV40-Gal4-VP16 only).

LXRβ = biological target: T2, LXRβ (Homo sapiens, UniProt P55055); test: Gal4-LXRβ hybrid reporter gene assay; assay type: cell-based; settings: classification agonist; read-out: LXRb pEC50/pIC50 (converted)
T2 construct: coding for the hinge region, and LBD of the canonical isoform of the respective nuclear receptor; expressed in transfected cells; host or cells: HEK293T
T2 sequence (P55055 222-460 limits assumed): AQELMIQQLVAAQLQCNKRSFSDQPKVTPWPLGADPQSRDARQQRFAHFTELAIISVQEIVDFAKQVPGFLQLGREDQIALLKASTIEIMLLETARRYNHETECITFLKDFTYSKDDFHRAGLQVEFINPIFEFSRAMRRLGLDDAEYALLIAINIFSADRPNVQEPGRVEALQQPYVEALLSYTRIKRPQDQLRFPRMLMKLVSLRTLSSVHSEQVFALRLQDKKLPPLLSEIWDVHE
Protocol: as §1, §2

[1] = tested on: LXR/retinoid X receptor (RXR) heterodimer; test: full-length LXR assay (LXR-responsive ABCA1 reporter, endogenous LXR) in HEK293T and HepG2 cells; assay type: cell-based; settings: 3 μM, vs 0.1% DMSO
From the text: Intrigued by the initial data on LXR modulation, we further investigated the mode-of-action of designs 1-3. As the Gal4 hybrid reporter gene assay is artificial and overexpresses LXR, we next examined LXR modulation by 1-3 in a full-length LXR assay (Figure a) based on the endogenous expression of the LXR/retinoid X receptor (RXR) heterodimer (Figure S2). Upon activation, LXR binds to response elements within the ATP-binding cassette transporter A1 (ABCA1, an LXR target gene) promoter of the reporter. […] The designs were next checked for antiproliferative effects that may compromise further in vitro characterization. […] Therefore, and due to the weak efficacy of 2, we focused further biological characterization on 1 and 3.
For the hybrid reporter gene assays, the previously reported Gal4-fusion receptor plasmids pFA-CMV-hRORα-LBD, pFA-CMV-hRORβ-LBD, pFA-CMV-hRORγ-LBD, pFA-CMV-hLXRα-LBD, pFA-CMV-hLXRβ-LBD, pFA-CMV-hFXR-LBD, pFA-CMV-hPXR-LBD, and pFA-CMV-hRXRα-LBD, coding for the hinge region, and LBD of the canonical isoform of the respective nuclear receptor were used. pFR-Luc (Stratagene) was used as the reporter plasmid, and pRL-SV40 (Promega) was used in all assays for the normalization of transfection efficiency and cell growth. pECE-SV40-Gal4-VP16 was a gift from Lea Sistonen (Addgene plasmid #71728). The LXR-responsive reporter ABCA1-pGL3 was used for the full-length reporter gene assay.
The day before transfection, HEK293T cells were seeded in 96-well plates (4 × 10^4 cells/well). Before transfection, the medium was changed to Opti-MEM without any supplements. […] Luminescence was measured with a Spark 10 M luminometer (Tecan Deutschland GmbH). […] EC50/IC50 values and the standard errors thereof were calculated with the mean fold activation values by OriginPro, Version 2025 (OriginLab Corporation, Northampton, MA, USA), fitting a dose–response curve with a variable Hill slope (Levenberg–Marquardt algorithm). […]

HEK293T cells = test: resazurin-based proliferation assay, HEK293T; assay type: cell-based; settings: 10 μM
Protocol: (§3) HepG2 or HEK293T cells were seeded in 96-well plates (4 × 10^4 cells per well). […] After 4, 14, and 24 h, the medium was aspirated, and the cells were incubated with 100 μM resazurin solution in Opti-MEM (prepared from a 0.15 mg/mL resazurin stock in DPBS) for 60 min. The metabolic activity was assessed by conversion of resazurin to resorufin, which was quantified by measuring absorbance at 570 nm and a reference wavelength of 600 nm. The cell count was calculated from a calibration curve with 0–10^5 cells per well in steps of 2 × 10^4.

HepG2 cells = test: resazurin-based proliferation assay, HepG2; assay type: cell-based; settings: 10 μM
Protocol: as §3

ABCA1 = test: qPCR of LXR-regulated mRNA expression in HepG2: ABCA1; assay type: cell-based, human; settings: 1 μM, HepG2, 24 h
APOE = test: qPCR of LXR-regulated mRNA expression in HepG2: APOE; assay type: cell-based, human; settings: 1 μM, HepG2, 24 h
SREBP1c = test: qPCR of LXR-regulated mRNA expression in HepG2: SREBP1c; assay type: cell-based, human; settings: 1 μM, HepG2, 24 h

classification (LXRα; applies to LXRa and LXRb) | LXR modulation in Gal4 hybrid reporter gene assays (mode of action) (LXRα; both LXR subtypes (LXRα and LXRβ)) | EC50 (LXRα; classification agonist, read-out: LXRa pEC50/pIC50 (converted)) [µM] | EC50 (LXRβ) [µM] | SMILES | LXR modulation in LXR-responsive ABCA1 reporter gene assay [1] | antiproliferative effect (HEK293T cells) | antiproliferative effect (HepG2 cells) | ABCA1 mRNA expression (ABCA1) | ABCA1 mRNA expression (ABCA1; listed as T090) | APOE mRNA expression (APOE) | APOE mRNA expression (APOE; listed as T090) | SREBP1c mRNA expression (SREBP1c) | SREBP1c mRNA expression (SREBP1c; listed as T090)
agonist | partial agonists | > 3.16 | > 3.16 | CS(=O)(=O)c1cccc(N2CCN(c3ccc(Cl)c(C(F)(F)F)c3)CC2)c1 [Compound 2, 1-(4-Chloro-3-[trifluoromethyl]phenyl)-4-(3-[methylsulfonyl]phenyl)piperazine] | partial LXR agonists; also recorded: partial LXR agonism | did not inhibit the proliferation; also recorded: slightly reduced growth rate | did not inhibit the proliferation |  |  |  |  |  | 
 |  |  |  | O=S(=O)(c1ccccc1)N(CC(F)(F)F)c1ccc(C(O)(C(F)(F)F)C(F)(F)F)cc1 [Compound T0901317, reference compound] |  |  |  | induced mRNA expression | induced | induced mRNA expression | induced | induced mRNA expression | induced
